Data: patent US7524503B2, “Human cytomegalovirus (HCMV) cytotoxic T cell epitopes, polyepitopes compositions comprising same and diagnostic and prophylactic and therapeutic uses therefor” (priority 2001, dated 2009)
Where two headings read alike, the source gives them in different places.

Key:
Type in all cases: cell-based, human
CD4+ T cells = test: CD4+/CD8+ analysis of 20-mer peptides (intracellular IFN-γ staining or depletion ELISPOT)
Protocol: (§1) To determine whether a particular 20-mer peptide contained either a CD4^+- or CD8^+-restricted epitope, or both, CD4^+/CD8^+ cell depletion ELISPOT assays were performed on PBMC from healthy virus carriers. For any one experiment, three populations of cells were used: a) CD8^+-depleted PBMC, b) CD4^+-depleted PBMC, and c) non-depleted PBMC. These populations of cells were tested concurrently with the same peptides in a conventional ELISPOT assay as described herein above. DYNABEADS M-450 (Dynal, Oslo, Norway) that bound specifically to CD4^+- or CD8^+ cells were used to perform the depletion essentially according to manufacturers instructions. Beads were washed twice in cold PBS supplemented with 2% FCS using magnetic isolation. The requisite number of cells was resuspended in cold PBS supplemented with 2% FCS, added to the beads and then incubated at 4° C., in the dark, for 30 mins (CD8^+ beads) or 60 mins (CD4^+ beads). Populations were depleted of CD4^+ or CD8^+ cells using magnetic separation. After depletion, the non-attached cells were removed and washed once in growth medium, counted and used in conventional ELISPOT assay. Depleted cells were used at 1.7×10^5 cells per well and the non-depleted population was used at the standard 2.5×10^5 cells per well. After the depletion step, each respective cell population was assessed for the purity of CD4^+ and CD8^+ T cells by three-colour flow cytometry. Samples of depleted cell populations were stained with anti-CD3 antibody directly conjugated to fluorescein isothiocyanate (FITC), anti-CD4 antibody conjugated with phycoerythrin (PE) fluorochrome, and anti-CD8 antibody conjugated with Tricolor fluorochrome (described below). The percent of CD3^+/CD4^+ cells present within the CD8^+-depleted population and the percent of CD3^+/CD8^+ cells present within the CD4^+-depleted populations were assessed on FACSCalibur cytometer (Becton Dickinson). The purity of each population was greater than 90% and the results from the ELISPOT assays are expressed as the percentage of CD4+ or CD8^+ cells within the depleted populations that responded toward each peptide by producing IFN-γ.
(§2) PBMCs were incubated at 37° C. in RPMI+10% FCS with and without 10 μg/ml peptides for 6 hours. Golgiplug™ (Pharmingen, San Diego, Calif., USA) was added to the samples according to manufacturer's instructions during the second hour of incubation and cells activated with 25 ng/ml phorbol 12-myristidate 13-acetate (PMA; Sigma-Aldrich Co, St. Louis Mo.) and 1 μg/ml iomomycin (Sigma) acted as a positive control. Following the incubation, 1×10^6 cells/sample were washed and resuspended in staining buffer consisting of PBS with GolgiPlug™, 3% FCS and sodium azide. Cells were then stained with FITC conjugated anti-CD3-FITC (UCHT1, Immunotech, Marseille, France), and either Tricolor (TRI) conjugated anti-CD4 (S3.5, Caltag, Burlingame, Calif.) or anti-CD8 (3B5, Caltag) for 30 minutes, 4° C. in the dark. The cells were fixed for 20 min at 4° C. with Cytofix/Cytoperm™ (BD Biosciences) and resuspended in Perm/Wash™ permeabilization buffer (BD Biosciences) according to manufacturers protocol. Fixed cells were stained with phycoerythrin (PE) conjugated anti-human IFN-γ (B27, Pharmingen) for 30 min at 4° C. in the dark. As a negative control, cells were stained with appropriate isotype matched control antibodies. Cells were washed twice in permeabilization buffer and resuspended in staining buffer before analysis by three-colour flow cytometry on a FACSCalibur cytometer (BD Biosciences). All data analysis was carried out using FlowJo software (Tree Star, Inc. San Carlos, CA).
(§3) When using 20-mer peptides to map epitopes by ELISPOT, it is possible that some responses may be MHC class-II restricted, and not necessarily restricted through HLA class I alleles. It was evident throughout this study that some epitopes identified using ELISPOT could not be confirmed using cytotoxicity analysis. […]

CD8+ T cells = test: as above
Protocol: as §1, §2, §3

[1] = tested on: PBMC from healthy HCMV seropositive donors; test: IFN-γ ELISPOT assay; conditions: peptide 10 μg/ml
Protocol: ELISPOT assay was used to assess whether stimulation of PBMC from a large panel of seropositive donors with HCMV peptides could induce IFN-γ expression in T cells. Briefly, a 96-well nitrocellulose plate (Multiscreen, Millipore) was coated overnight at 4° C. with mouse monoclonal antibody anti-IFN-γ IgG1 (10 μg/ml; Mabtech Nacka, Sweden). The plate was then washed six times in Phosphate Buffered Saline (PBS) and blocked for 1 hour at 37° C. with PBS supplemented with 5% FCS. The blocking solution was removed and PBMC from healthy HCMV seropositive donors were added at a concentration of 2.5×10^5 cells per well in growth medium. These cells were incubated for 18 h at 37° C. in a 5% CO2 atmosphere in the presence of synthetic peptides from HCMV antigens (10 μg/ml). After incubation, the plate was washed three times with PBS supplemented with 0.05% Tween, followed by three washes with PBS alone. Biotinylated anti-IFN-γ (Mabtech, Nacka Sweden) detection antibody was added to each well at a final concentration of 1 μg/ml in PBS. The plates were incubated at room temperature in the dark for 4 h and then washed, as described above. Streptavidin-Alkaline phosphatase (Sigma) was added to each well at a final concentration of 1 μg/ml in PBS and incubated at room temperature in the dark for 2 h. After a final wash with PBS, the substrate, 5-bromo-4-chloro-3-indolyl phosphate and nitro blue tetrazolium, was added to each well and the plates incubated for 30 min at RT. Cells that produced IFN-γ in response to the presence of peptide were detected as purple spots on the nitrocellulose membrane of each well. The spots were counted automatically using a closed-circuit camera (CCD) and ImagePro image analysis software or automated ELISPOT reader (AID, Germany). The T cell precursor frequency for each peptide was based on the total number of PBMC in the well and the number of peptide-specific spots per well, over an average of 3 wells. The number of peptide-specific spots was also calculated by subtracting the negative control values, which consisted of PBMC without peptide (an average of 3 wells), from the test wells.
To determine whether memory CTL responses against the predictive HCMV potential epitopes could be detected in healthy seropositive virus carriers, we used the ELISPOT assay, which allows rapid identification of CTL epitopes without prolonged in vitro culture.
We tested epitopes that were restricted for HLA A1, A3, A24, A26, B7, B8, B27, B35 and B44 in ELISPOT assays, to determine whether memory T cell responses could be detected in healthy HLA-matched virus carriers. PBMC from a cohort of healthy virus carriers (Table 2) were stimulated with individual peptides and the cells that produced IFN-γ were detected. CTL epitopes that were restricted through either HLA A1, A3, A24, A26, B7, B8 or B27, were identified.
Thus, a total of 450 peptides were produced. ELISPOT assays were used to determine whether ex vivo memory T cell responses could be detected in a cohort of 14 healthy virus carriers (Table 2). PBMC were stimulated with individual peptides and the cells that produced IFN-γ were detected.

[2] = tested on: peptide-sensitized autologous PHA blasts or LCLs; design: key to CTL response: Y: Yes; ND: Not detected

## TGPRKKKSKRISELDNEKVR
CD4+ T cells; donor seven
  Responding cells (% CD4): SB(0.02/0.02) %
CD8+ T cells; donor seven
  Responding cells (% CD8): SB(0.02/0.02) %
[1]; donor delta
  ELISPOT Responses (SFC/10^6 PBMC): 162 SFC/10^6 PBMC
[1]; donor seven
  ELISPOT Responses (SFC/10^6 PBMC): 148 SFC/10^6 PBMC

## CLPLMQKFPKQVMVRIFSTN (human cytomegalovirus IE2 CTL epitope peptide)
CD4+ T cells; donor sixteen
  Responding cells (% CD4): 0%
CD8+ T cells; donor sixteen
  Responding cells (% CD8): 0.15%
[1]; donor sixteen
  ELISPOT Responses (SFC/10^6 PBMC): TC(256) SFC/10^6 PBMC

## CKTMQVNNKGIQIIYTRNHE
CD4+ T cells; donor sixteen
  Responding cells (% CD4): 0%
CD8+ T cells; donor sixteen
  Responding cells (% CD8): 0.14%
[1]; donor sixteen
  ELISPOT Responses (SFC/10^6 PBMC): TC(154) SFC/10^6 PBMC

## AHELVCSMENTRATKMQVIG
CD4+ T cells; donor seven
  Responding cells (% CD4): 0.04%
CD8+ T cells; donor seven
  Responding cells (% CD8): 0.01%
[1]; donor alpha
  ELISPOT Responses (SFC/10^6 PBMC): 169 SFC/10^6 PBMC
[1]; donor seven
  ELISPOT Responses (SFC/10^6 PBMC): 231 SFC/10^6 PBMC

## FPTKDVAL [reference compound]
[2]; predicted epitopes, Table 3
  CTL response: Y
[1]; donor three
  ELISPOT Responses (SFC/10^6 PBMC): MW(445) SFC/10^6 PBMC

## SSSSSSCSSASDSESESEEM (human cytomegalovirus IE2 CTL epitope peptide)
CD4+ T cells; donor eight
  Responding cells (% CD4): 0%
CD4+ T cells; donor sixteen
  Responding cells (% CD4): 0%
CD8+ T cells; donor eight
  Responding cells (% CD8): 0.01%
CD8+ T cells; donor sixteen
  Responding cells (% CD8): 0.05%
[1]; donor eight
  ELISPOT Responses (SFC/10^6 PBMC): 125 SFC/10^6 PBMC
[1]; donor sixteen
  ELISPOT Responses (SFC/10^6 PBMC): 93 SFC/10^6 PBMC

## FRNTNRSLEYKNLPFTIPSM
CD4+ T cells; donor sixteen
  Responding cells (% CD4): 0%
CD8+ T cells; donor sixteen
  Responding cells (% CD8): 0.25%
[1]; donor sixteen
  ELISPOT Responses (SFC/10^6 PBMC): TC(187) SFC/10^6 PBMC

## TRATKMQVIGDQYVKVYLES
CD4+ T cells; donor seven
  Responding cells (% CD4): 0.09%
CD8+ T cells; donor seven
  Responding cells (% CD8): 0.01%
[1]; donor alpha
  ELISPOT Responses (SFC/10^6 PBMC): 139 SFC/10^6 PBMC
[1]; donor seven
  ELISPOT Responses (SFC/10^6 PBMC): 346 SFC/10^6 PBMC

## TGGGAMAGASTSAGRKRKSA
CD4+ T cells; donor eight
  Responding cells (% CD4): JW(0.01/0.01) %
CD8+ T cells; donor eight
  Responding cells (% CD8): JW(0.01/0.01) %
[1]; donor eight
  ELISPOT Responses (SFC/10^6 PBMC): JW(441) SFC/10^6 PBMC

## DQYVKVYLESFCEDVPSGKL
CD4+ T cells; donor delta
  Responding cells (% CD4): 0%
CD8+ T cells; donor delta
  Responding cells (% CD8): 0.23%
[1]; donor delta
  ELISPOT Responses (SFC/10^6 PBMC): SE(265) SFC/10^6 PBMC

## GAAQGDDDVWTSGSDSDEEL
CD4+ T cells; donor eight
  Responding cells (% CD4): 0%
CD8+ T cells; donor eight
  Responding cells (% CD8): 0.01%
[1]; donor eight
  ELISPOT Responses (SFC/10^6 PBMC): JW(248) SFC/10^6 PBMC

## VLEETSVML (human cytomegalovirus IE1 CTL epitope peptide)
[2]; donor seven, effector:target ratio 10:1
  CTL activity of polyclonal CTL line: strong CTL activity
[2]; predicted epitopes, Table 3
  CTL response: Y
[1]; donor fifteen
  ELISPOT Responses (SFC/10^6 PBMC): 245 SFC/10^6 PBMC
[1]; donor seven
  ELISPOT Responses (SFC/10^6 PBMC): 3752 SFC/10^6 PBMC

## VKSEVDAVRCRLGTMCNLAL
CD4+ T cells; donor delta
  Responding cells (% CD4): 0%
CD8+ T cells; donor delta
  Responding cells (% CD8): 0.06%
[1]; donor delta
  ELISPOT Responses (SFC/10^6 PBMC): 253 SFC/10^6 PBMC
[1]; donor seven
  ELISPOT Responses (SFC/10^6 PBMC): 320 SFC/10^6 PBMC

## SDSESESEEMKCSSGGGASV (human cytomegalovirus IE2 CTL epitope peptide)
CD4+ T cells; donor sixteen
  Responding cells (% CD4): 0.01%
CD8+ T cells; donor sixteen
  Responding cells (% CD8): 0.22%
[1]; donor sixteen
  ELISPOT Responses (SFC/10^6 PBMC): TC(147) SFC/10^6 PBMC

## SEPVSEIEEVAPEEEEDGAE (human cytomegalovirus IE1 CTL epitope peptide)
CD4+ T cells; donor delta
  Responding cells (% CD4): 0%
CD8+ T cells; donor delta
  Responding cells (% CD8): 0.097%
[1]; donor delta
  ELISPOT Responses (SFC/10^6 PBMC): SE(200) SFC/10^6 PBMC

## VLCCYVLEETSVMLAKRPLI (human cytomegalovirus IE1 CTL epitope peptide)
[2]; overlapping 20mer peptides, Table 4
  CTL response: Y
[1]; donor seven
  ELISPOT Responses (SFC/10^6 PBMC): SB(2171) SFC/10^6 PBMC

## HQVLDEAIKACKTMQVNNKG
CD4+ T cells; donor sixteen
  Responding cells (% CD4): 0%
CD8+ T cells; donor sixteen
  Responding cells (% CD8): 0.18%
[1]; donor sixteen
  ELISPOT Responses (SFC/10^6 PBMC): TC(234) SFC/10^6 PBMC

## VTTERKTPRVTGGGAMAGAS
CD4+ T cells; donor eight
  Responding cells (% CD4): 0.17%
CD8+ T cells; donor eight
  Responding cells (% CD8): 0.24%
[1]; donor eight
  ELISPOT Responses (SFC/10^6 PBMC): 285 SFC/10^6 PBMC
[1]; donor epsilon
  ELISPOT Responses (SFC/10^6 PBMC): 322 SFC/10^6 PBMC
[1]; donor two
  ELISPOT Responses (SFC/10^6 PBMC): JD(319) SFC/10^6 PBMC

## QPFMRPHERNGFTVLCPKNM
CD4+ T cells; donor two
  Responding cells (% CD4): 0.05%
CD8+ T cells; donor two
  Responding cells (% CD8): 0%
[1]; donor delta
  ELISPOT Responses (SFC/10^6 PBMC): SE(783) SFC/10^6 PBMC

## KAAWSLKELHTHQLCPRSSD (human cytomegalovirus IE2 CTL epitope peptide)
CD4+ T cells; donor sixteen
  Responding cells (% CD4): 0%
CD8+ T cells; donor sixteen
  Responding cells (% CD8): 0.08%
[1]; donor sixteen
  ELISPOT Responses (SFC/10^6 PBMC): TC(162) SFC/10^6 PBMC
